Assay results as given in ChEMBL document CHEMBL4342450, “Antitumor Activity of Ohmyungsamycin A through the Regulation of the Skp2-p27 Axis and MCM4 in Human Colorectal Cancer Cells” (J Nat Prod, 2020).
Activity calls are given as the source filed them. The calls are words filed in the database; no cut-off is given here. *1 amine or outer side, *2 acyl side, *3 side chain or, on linkers, in order; H or OH if unused. Where a SMILES comes first, the peptide text is derived from it. Bridges are numbered along the chain shown (N, C = ends). [ ]: non-standard residue; d: D form. Phe(3R-OH) = O=C([C@@H](N[*:1])[C@H](O[*:3])c1ccccc1)[*:2]; NMeTrp(4-OMe) = CN[C@@H](Cc1c[nH]c2cccc(OC)c12)C(=O)O; NMeT = CN[C@H](C(=O)O)[C@@H](C)O; NMeL = CN[C@@H](CC(C)C)C(=O)O; NMeV = CN[C@H](C(=O)O)C(C)C

Experiments:
HCT-116 [1] = assay: Induction of cell cycle arrest in human HCT116 cells assessed as accumulation at S phase at 5 uM incubated for 24 hrs by propidium iodide staining based flow cytometry (reference value: 21.2%); format: functional
HCT-116 [2] = assay: Downregulation of HSPA1A gene expression in human HCT116 cells assessed as fold change at 15 uM incubated for 24 hrs by cDNA microarray analysis relative to control; format: functional
HCT-116 [3] = assay: Induction of cell cycle arrest in human HCT116 cells assessed as accumulation at sub-G1 phase at 5 uM incubated for 18 hrs by propidium iodide staining based flow cytometry (reference value: 0.9%); format: functional
HCT-116 [4] = assay: Induction of apoptosis in human HCT116 cells assessed as increase in cleaved PARP level at 20 uM after 24 hrs by Western blot analysis; format: functional, cell-based
HCT-116 [5] = assay: Modulation of Skp2-p27 Axis in human HCT116 cells assessed as upregulation of p27 expression after 24 hrs by Western blot analysis; format: functional, cell-based
HCT-116 [6] = assay: Induction of morphological changes in human HCT116 cells assessed as appearance of shrunken cells at 4 to 20 uM by inverted phase-contrast microscopic method; format: functional, cell-based
HCT-116 [7] = assay: Effect on Cul1 expression in human HCT116 cells at 5 to 20 uM after 24 hrs by Western blot analysis; format: functional, cell-based
A549 = assay: Antiproliferative activity against human A549 cells after 72 hrs by sulforhodamine B assay; format: functional, cell-based; details: A549, 72 h
HCT-116 [8] = assay: Induction of apoptosis in human HCT116 cells assessed as reduction in uncleaved full length caspase 8 level after 24 hrs by Western blot analysis; format: functional, cell-based
HCT-116 [9] = assay: Induction of cell cycle arrest in human HCT116 cells assessed as accumulation at sub-G1 phase at 20 uM incubated for 24 hrs by propidium iodide staining based flow cytometry (reference value: 4.8%); format: functional
HCT-116 [10] = assay: Induction of cell cycle arrest in human HCT116 cells assessed as accumulation at G2/M phase at 10 uM incubated for 24 hrs by propidium iodide staining based flow cytometry (reference value: 15.7%); format: functional
Mus musculus = assay: In vivo modulation of Skp2-p27 axis in tumor of BALB/c mouse xenografted with human HCT116 cells assessed as upregulation of p27 mRNA level at 5 to 10 m/kg, ip administered thrice a week for 3.5 weeks by RT-PCR method; format: functional, organism-based
HCT-116 [11] = assay: Decrease in cell cycle associated protein expression in human HCT116 cells assessed as reduction in CDK2 expression at 5 to 20 uM after 24 hrs by Western blot analysis; format: functional, cell-based
HCT-116 [12] = assay: Modulation of Skp2-p27 Axis in human HCT116 cells assessed as downregulation of Skp2 expression at 5 to 20 uM after 24 hrs by Western blot analysis; format: functional, cell-based

Q: What does the source list for `CN[C@H](C(=O)N[C@H](C(=O)N[C@@H]1C(=O)N(C)[C@@H]([C@@H](C)O)C(=O)N[C@@H](C(C)C)C(=O)N(C)[C@@H](CC(C)C)C(=O)N[C@@H](C(C)C)C(=O)N(C)[C@@H](C(C)C)C(=O)N(C)[C@@H](Cc2c[nH]c3cccc(OC)c23)C(=O)N[C@@H](C(C)C)C(=O)N[C@@H]([C@H](O)c2ccccc2)C(=O)N[C@@H](C(C)C)C(=O)O[C@@H]1C)C(C)C)C(C)C` (H-[NMeV]VT[NMeT]V[NMeL]V[NMeV][NMeTrp(4-OMe)]V[Phe(3R-OH)]V; ester 3-C)?
A: Activity (HCT-116 [1]): 5.6%; fold change (FC) (HCT-116 [2]): 4.43; Activity (HCT-116 [3]): 1.4%; Activity (HCT-116 [4]): Active; Activity (HCT-116 [5]): Dose-dependent effect; Activity (HCT-116 [6]): Active; Activity (HCT-116 [7]): inactive; IC50 (A549): 8.35 µM; Activity (HCT-116 [8]): Dose-dependent effect; Activity (HCT-116 [9]): 31.4%; Activity (HCT-116 [10]): 16.1%; Activity (Mus musculus): Active; inhibition (HCT-116 [11]): Active; inhibition (HCT-116 [12]): Active
